According to patent publication US20070092577A1, “Dietary calcium for reducing the production of reactive oxygen species” (University of Tennessee Research Foundation, priority 2005, published 2007):

Columns and labels:
[1] = system: Mitochondrial potential in cultured wild-type 3T3-L1 adipocytes; test: Mitochondrial membrane potential (JC-1); assay type: cell-based, murine; conditions: H2O2 100 nmol/L, 48 hours
Method: 3T3-L1 preadipocytes were incubated at a density of 8000 cells/cm^2 (10 cm^2 dish) and grown in Dulbecco's modified Eagle's medium (DMEM) containing 10% FBS and antibiotics (adipocyte medium) at 37° C. in 5% CO2 in air. Confluent preadipocytes were induced to differentiate with a standard differentiation medium consisting of DMEM-F 10 (1:1, vol/vol) medium supplemented with 1% FBS, 1 μM dexamethasone, IBMX (0.5 mM) and antibiotics (1% Penicillin-Streptomycin). Preadipocytes were maintained in this differentiation medium for 3 days and subsequently cultured in adipocyte medium. Cultures were re-fed every 2-3 days to allow 90% of cells to reach full differentiation before conducting chemical treatment. Chemicals were freshly diluted in adipocyte medium before treatment. […] Cell viability was measured via trypan blue exclusion.
Mitochondrial membrane potential was analyzed fluorometrically with a lipophilic cationic dye JC-1 (5,5′,6,6′-tetrachloro-1,1′,3,3′-tetraethylbenzimidazol carbocyanine iodide) using a mitochondrial potential detection kit (Biocarta, San Diego, Calif.). Mitochondrial potential was determined as the ratio of red fluorescence (excitation 550 nm, emission 600 mn) and green fluorescence (excitation 485 nm, emission 535 nm) using a fluorescence microplate reader.

MIF [2] = test: MIF expression in human adipocytes; assay type: cell-based; conditions: calcitriol 10 nmol/L, 48 hours; p=0.001
Source text: Cell culture: Human preadipocytes used in this study were supplied by Zen-Bio (Research Triangle, N.C.). Preadipocytes were inoculated in DMEM/Ham's F-10 medium (DMEM-F10) (1:1, vol/vol) containing 10% FBS, 15 mmol/L HEPES, and antibiotics at a density of 30,000 cells/cm^2. Confluent monolayers of preadipocytes were induced to differentiate with a standard differentiation medium consisting of DMEM-F 10 (1:1, vol/vol) medium supplemented with 15 mmol/L HEPES, 3% FBS, 33 μmol/L biotin, 17 μmol/L pantothenate, 100 nmol/L insulin, […] methylisobutylxanthine, 1 μmol/L dexamethasone, 1 μmol/L BRL49653, and antibiotics. […]
(§1) Cells were washed with fresh adipocyte medium, re-fed with medium containing the indicated treatments, and incubated at 37° C. in 5% CO2 for 48 hours before analysis. Cell viability was measured via trypan blue exclusion.
(§2) Adipocyte and muscle 18s, CD14, TNFα, MIP, M-CSF, IL-6 and MCP-1 were quantitatively measured using a Smart Cycler Real Time PCR System (Cepheid, Sunnyvale, Calif.) with a TaqMan 1000 Core Reagent Kit (Applied Biosystems, Branchburg, N.J.). […] Reactions of quantitative RT-PCR for standards and unknown samples were also performed according to the instructions of Smart Cycler System (Cepheid, Sunnyvale, Calif.) and TaqMan Real Time PCR Core Kit (Applied Biosystems, Branchburg, N.J.). […]

MIF [3] = test: MIF expression in mouse (3T3-L1) adipocytes; assay type: cell-based; conditions: calcitriol 10 nmol/L, 48 hours
Method: (§3) RAW 264 macrophages and 3T3-L1 preadipocytes (American Type Culture Collection) were incubated at a density of 8000 cells/cm2 (10 cm2 dish) and grown in Dulbecco's modified Eagle's medium (DMEM) containing 10% FBS and antibiotics (adipocyte medium) at 37° C. in 5% CO2 in air. Confluent 3T3-L1 preadipocytes were induced to differentiate with a standard differentiation medium consisting of DMEM-F10 (1:1, vol/vol) medium supplemented with 1% FBS, 1 μM dexamethasone, IBMX (0.5 mM) and antibiotics (1% Penicillin-Streptomycin). Preadipocytes were maintained in this differentiation medium for 3 days and subsequently cultured in adipocyte medium. […]
as §1, §2

M-CSF = M-CSF expression in 3T3-L1 adipocytes; assay type: cell-based, mouse; conditions: calcitriol 10 nmol/L, 48 hours
Method: as §3
Cell viability was measured via trypan blue exclusion.
Adipocyte and muscle 18s, CD14, TNFα, MIP, M-CSF, IL-6 and MCP-1 were quantitatively measured using a Smart Cycler Real Time PCR System (Cepheid, Sunnyvale, Calif.) with a TaqMan 1000 Core Reagent Kit (Applied Biosystems, Branchburg, N.J.). […] Reactions of quantitative RT-PCR for standards and unknown samples were also performed according to the instructions of Smart Cycler System (Cepheid, Sunnyvale, Calif.) and TaqMan Real Time PCR Core Kit (Applied Biosystems, Branchburg, N.J.). The mRNA quantitation for each sample was further normalized using the corresponding 18s quantitation.

MIP = MIP expression in 3T3-L1 adipocytes; assay type: cell-based, mouse; conditions: calcitriol 10 nmol/L, 48 hours
Method: as §3, §1, §2

TNFα = TNFα expression in differentiated 3T3-L1 adipocytes; assay type: cell-based, mouse; conditions: 10 nmol/L, 48 h
Method: 3T3-L1 pre-adipocytes were incubated at a density of 8000 cells/cm^2 (10 cm^2 dish) and grown in Dulbecco's modified Eagle's medium (DMEM) containing 10% FBS and antibiotics (adipocyte medium) at 37° C. in 5% CO2 in air. Confluent pre-adipocytes were induced to differentiate with a standard differentiation medium consisting of DMEM-F10 (1:1, vol/vol) medium supplemented with 1% fetal bovine serum (FBS), 1 μM dexamethasone, isobutylmethylxanthine (IBMX) (0.5 mM) and antibiotics (1% Penicillin-Streptomycin). Pre-adipocytes were maintained in this differentiation medium for 3 days and subsequently cultured in adipocyte medium. Cultures were re-fed every 2-3 days to allow 90% cells to reach fully differentiation before conducting chemical treatment. […] Cell viability was measured via trypan blue exclusion. Adipocyte and muscle 18s, TNFα, IL-6, IL-8, IL-15 and adiponectin were quantitatively measured using a smart cycler real-time PCR system (Cepheid, Sunnyvale, Calif.) with a TaqMan 1000 Core Reagent Kit (Applied Biosystems, Branchburg, N.J.). […] Reactions of quantitative RT-PCR for standards and unknown samples were also performed according to the instructions of Smart Cycler System (Cepheid, Sunnyvale, Calif.) and TaqMan Real Time PCR Core Kit (Applied Biosystems, Branchburg, N.J.). The mRNA quantitation for each sample was further normalized using the corresponding 18s quantitation.

SMILES | increase of mitochondrial potential [1] | increase of MIF expression (MIF [2]) | increase of MIF expression (MIF [3]) | effect on M-CSF expression (M-CSF) | effect on MIP expression (MIP) | stimulation of TNFα expression (TNFα)
OO [H2O2, hydrogen peroxide] | 72% | – | – | – | – | –
C=C1/C(=C\C=C2/CCC[C@]3(C)[C@@H]([C@H](C)CCCC(C)(C)O)CC[C@@H]23)C[C@@H](O)C[C@@H]1O [calcitriol, 1, 25-Dihydroxyvitamin D] | – | 59% | 50% | markedly stimulate | markedly stimulate | 135%
